Data on two compounds can be found in patent US10111854B2, “Synthesis and use of amine-containing flavonoids as potent anti-leishmanial agents” (The Hong Kong Polytechnic University, priority 2014, dated 2018).

Data set [1] deals with L. braziliensis UA847 amastigotes. The experiment in a line: Anti-amastigote activity in infected PEM, L. braziliensis UA847. The settings on record: Leishmania braziliensis, 72 h, 3 days, Giemsa, read-out: Anti-amastigote activity IC50, L. baziliensis UA847. The class given is cell-based. An outline of the steps:
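IC50 values derive from the number of amastigotes per 100 macrophages, counted on Giemsa-stained cover slips. Infected mouse PEM had been treated for 72 h at 37 °C.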

The subject of a further data set is L. amazonensis. The settings on record: cutaneous leishmaniasis murine model; cited from earlier work.
The test system of data set [2] is peritoneal elicited macrophages (PEM). Briefly: Cytotoxicity, peritoneal elicited macrophages (PEM). The class given is cell-based, mouse. The note with it: mouse.

`O=c1cc(-c2ccc(OCCOCCN(Cc3ccccn3)Cc3ccccn3)cc2)oc2ccccc12` [FM09, 2-(4-(2-(2-(bis(pyridin-2-ylmethyl)amino)ethoxy)ethoxy)phenyl)-4H-chromen-4-one]: the IC50 (usually the concentration needed to halve the response being measured) in data set [1] was 0.6 ± 0.1 µM.

With `O=c1cc(-c2ccc(OCCOCCN(CCOCCOc3ccc(-c4cc(=O)c5ccccc5o4)cc3)Cc3ccncc3)cc2)oc2ccccc12` [compound 39], the “Foot pad lesion size” value in the data set on L. amazonensis is given as “effective in reducing foot pad lesion size”. The IC50 in data set [2] was > 88 µM.
